Laboratory results reported in patent publication US20150064200A1, “METHODS AND COMPOSITIONS FOR 6-PHOSPHOGLUCONATE DEHYDROGENASE (6-PGD) AS A TARGET FOR LUNG CANCER THERAPY” (BETH ISRAEL DEACONESS MEDICAL CENTER, INC., priority 2012, published 2015).
Several values for one entry are separate records, joined by “and”; a condition that tells them apart may be missing. Equal values may be shown once.

How the values were obtained:
[1] = test system: mouse 6-PGD; test: Western blot of exogenous mouse 6-PGD expression in rescue experiment; format: cell-based; settings: H1975 cells transduced with mouse-6PGD retrovirus, doxycycline induction
Source text: (§1) To test the functional role of 6-PGD in human non small cell lung carcinoma (NSCLC), we used H1975 cells as our model system (FIG. 2A). These adenocarcinoma cells harbor two mutations in the EGFR (L858R/T790M) and are widely used to study the mechanism and treatment of gefitinib/erlotinib-resistant lung cancer cells. We chose to use an inducible shRNA system to knock down 6-PGD expression. Three nonoverlapping shRNAs were chosen in these experiments. […] Importantly, 6-PGD expression knockdown caused a substantial decrease in cell proliferation. To further corroborate the involvement of 6-PGD in NSCLC proliferation in vitro, we performed expression rescue experiments (FIG. 2B). H1975 cells expressing control shRNA or 6-PGD shRNA1 were transduced by either empty- or mouse-6PGD retrovirus. […] Overexpression of mouse 6-PGD alone enhanced H1975 cell growth. […] Our result confirmed that the growth inhibition was due to 6-PGD knockdown and not a non-specific artifact of the shRNA.

[2] = test system: senescence-associated beta galactosidase (SA-β-GAL) activity; test: Senescence-associated beta galactosidase (SA-β-GAL) staining and chromogenic assay; format: cell-based, human; settings: cells with 6-PGD knockdown
Source text: We noticed that the cells with 6-PGD knocked down were enlarged and flattened-shapes characteristic of cells undergoing senescence. We therefore stained the cells for senescence-associated beta galactosidase (SA-β-GAL) activity. Because shRNA1 and shRNA2 had the most dramatic effects on 6-PGD expression and cell proliferation, we opted to test these two shRNAs in these experiments. […] Therefore, we concluded that suppression of 6-PGD induces cellular senescence in these cancer cells.
We tested whether the use of glucose or fructose in the medium might influence the phenotypic outcome of 6-PGD suppression. Fructose can be used to generate glycolytic metabolites via different pathways. For example, in the liver, fructose can be phosphorylated by fructokinase to yield fructose-1-phosphate and ultimately glyceraldehyde-3-phosphate to re-enter glycolysis. Fructose can also enter glycolysis when phosphorylated by hexokinase to become fructose-6-phosphate. We reasoned that if H1975 could metabolize fructose by these mechanisms, cells grown in fructose without glucose would likely be devoid of glucose-6-phosphate, bypassing the oxidative branch of the PPP. This scenario may be similar to the PPP shutdown by means of G6PD depletion. H1975 cells were treated with doxycycline to induce 6-PGD knockdown in 2 g/L fructose (no glucose). […]

[3] = test system: H1975 cells; test: H1975 xenograft tumor growth in nude mice; format: in vivo; settings: H1975 cells induced with doxycycline, subcutaneous in nude mice, tumors weighed after 18 days
Source text: We sought to test whether 6-PGD knockdown would inhibit tumor growth in a xenograft model. Control shRNA-, 6-PGD shRNA1, and 6-PGD shRNA2-H1975 cells were induced with doxycycline in vitro for three days prior to subcutaneous injection into nude mice. Mice were fed with doxycycline supplemented in drinking water. Tumors were excised after 18 days and weighed.

[4] = test system: H1975 cells; test: Cell proliferation of H1975 cells upon knockdown; format: cell-based, human; settings: 6-PGD knockdown
Source text: as §1
The dramatic decrease in cell proliferation when 6-PGD was knocked down implies that the oxidative branch of the pentose phosphate pathway (PPP) could be indispensable for cell growth. […] To address this discrepancy, we next knocked down G6PD by transient siRNA transfection in H1975 cells. […] Therefore, the dramatic growth inhibition observed when 6-PGD was knocked down was not simply a result of PPP blockade. […]

[5] = test system: H1975 cells; test: Oxygen consumption rate (OCR); format: cell-based, human
Source text: We suspected that upon 6-PGD knockdown, these cells might have maintained NADPH level by enhanced glutaminolysis, another major mechanism for NADPH production. We therefore examined the rate of oxygen consumption of these cells, as NADPH production via glutaminolysis requires oxygen.

[6] = test system: p53; test: Western blot of p53 expression in cells with 6-PGD knockdown; format: cell-based, human; settings: H1975 cells
Source text: One of the main mechanisms for cellular senescence induction is the p53 pathway. Therefore we hypothesized that p53 expression might be increased in cells with 6-PGD knockdown.

[7] = test system: 6-PGD; test: Western blot of 6-PGD expression after inducible shRNA knockdown; format: cell-based, human; settings: H1975 cells
Source text: as §1

[8] = test system: H1975 cells; test: Metabolite levels by mass spectrometry upon 6-PGD knockdown; format: cell-based, human; settings: H1975, doxycycline three days, vs control shRNA
Experimental: Both control- and 6-PGD shRNA1-expressing H1975 cells were treated with doxycycline for three days. Metabolites were extracted for analysis by mass spectrometry. Results are grouped according to metabolic pathways (Table 5). […] Specifically, as might be expected, 6-phospho-D-gluconate and D-glucono-δ-lactone-6-phosphate levels were up by 11 and 7.9 fold, respectively. Direct determination of the effects in the non-oxidative branch was more difficult, as levels of some key intermediates such as xylulose-5-phosphate and D-sedo-heptulose-7-phosphate were not determined in our mass spectrometric analysis. However, there was no change in the level of total ribose phosphates, downstream products of the PPP. Importantly, levels of all the triphosphate nucleotides essential for DNA and RNA synthesis were essentially unchanged. […] Glycolysis also appeared to be affected by 6-PGD knockdown. Both glucose-6-phosphate and fructose-6-phosphate levels were increased, perhaps due to a backlog in the PPP. […] We believe that these intermediates were shunted to the non-oxidative PPP via the transketolase reactions using glyceraldehyde-3-phosphate as the entry point. These transketolase reactions would compensate for the blockade at 6-PGD and provide a carbon source for ribose phosphate production and maintenance of dNTP/NTP levels. […] In particular NADPH level was determined by this metabolomic analysis to be also unchanged by 6-PGD knockdown, consistent with result obtained by the colorimetric assay (FIG. 5A).

shRNA1: 6-PGD specific shRNA from Open Biosystems, Oligo ID V3LHS_381993, mature sequence AGU UUG AUG GUG AUA AGA A (guide AGUUUGAUGGUGAUAAGAA; shRNA hairpin; mature sequence only)
expression of mouse 6-PGD [1]: without affecting the expression of mouse 6-PGD
number of cells positive for SA-β-GAL staining [2]: significantly increased
tumor growth [3]: significantly retarded tumor growth
cell proliferation [4]: significantly blocked proliferation
oxygen consumption rate (OCR) [5]: significant increase
p53 expression [6]: significantly upregulated
expression of 6-PGD [7]: most effective
Fold Change Glutamate ([8]; Glutamine/Glutamate): −1.1 fold
Fold Change Glutamine ([8]; Glutamine/Glutamate): −1.1 fold
Fold Change 1,3-Diphopshateglycerate ([8]; Glycolysis): 0.0 fold
Fold Change 3-Phosphoglycerate ([8]; Glycolysis): −2.1 fold
Fold Change D-Glyceraldehdye-3-phosphate ([8]; Glycolysis): −3.8 fold
Fold Change Dihyroxyacetone-phosphate ([8]; Glycolysis): −5.9 fold
Fold Change Fructose-1,6-bisphosphate ([8]; Glycolysis): −4.6 fold
Fold Change Fructose-6-phosphate ([8]; Glycolysis): 1.4 fold
Fold Change Glucose-6-phosphate ([8]; Glycolysis): 1.8 fold
Fold Change Lactate ([8]; Glycolysis): −1.2 fold
Fold Change Phosphoenolpyruvate ([8]; Glycolysis): −2.8 fold
Fold Change Pyruvate ([8]; Glycolysis): 1.3 fold
Fold Change ATP ([8]; NTPs/dNTPs): 1.2 fold
Fold Change CTP ([8]; NTPs/dNTPs): 1.0 fold
Fold Change GTP ([8]; NTPs/dNTPs): 1.5 fold
Fold Change UTP ([8]; NTPs/dNTPs): 1.2 fold
Fold Change dATP ([8]; NTPs/dNTPs): −1.1 fold
Fold Change dCTP ([8]; NTPs/dNTPs): 1.0 fold
Fold Change dGTP ([8]; NTPs/dNTPs): 1.2 fold
Fold Change dTTP ([8]; NTPs/dNTPs): −1.2 fold
Fold Change D-Glucono-δ-lactone-6-phosphate ([8]; PPP): 7.9 fold
Fold Change Ribose-phosphate ([8]; PPP): 1.2 fold
Fold Change 6-Phospho-D-gluconate ([8]; PPP, listed as 6-PGD shRNA1): 11 fold and 11.0 fold
Fold Change Glutathione ([8]; REDOX): −1.3 fold
Fold Change Glutathione disulfide ([8]; REDOX): 1.0 fold
Fold Change NAD+ ([8]; REDOX): 1.2 fold
Fold Change NADH ([8]; REDOX): −1.5 fold
Fold Change NADP+ ([8]; REDOX): 1.3 fold
Fold Change NADPH ([8]; REDOX): −1.1 fold
Fold Change Acetyl-CoA ([8]; TCA): 1.6 fold
Fold Change Citrate ([8]; TCA): 1.1 fold
Fold Change Fumarate ([8]; TCA): 1.0 fold
Fold Change Isocitrate ([8]; TCA): −1.1 fold
Fold Change Malate ([8]; TCA): −1.3 fold
Fold Change Oxaloacetate ([8]; TCA): −1.1 fold
Fold Change Succinate ([8]; TCA): −1.3 fold
Fold Change α-Ketoglutarate ([8]; TCA): −1.2 fold

shRNA2: 6-PGD specific shRNA from Open Biosystems, Oligo ID V3LHS_381995, mature sequence AGG ACU GUC UCC AAA GUU G (guide AGGACUGUCUCCAAAGUUG; shRNA hairpin; mature sequence only)
number of cells positive for SA-β-GAL staining [2]: significantly increased
tumor growth [3]: significantly retarded tumor growth
oxygen consumption rate (OCR) [5]: significant increase
p53 expression [6]: significantly upregulated
expression of 6-PGD [7]: most effective
